{"source": "patent US20240148640A1", "about": "“TOPICAL OXYBUTYNIN FOR HOT FLASHES” (CELISTA PHARMACEUTICALS LLC, priority 2022, published 2024)", "origin": "cited, not measured here", "data": [{"smiles": "CCN(CC)CC#CCOC(=O)C(O)(c1ccccc1)C1CCCCC1", "note": "(centres unmarked) [oxybutynin]", "values": [{"measurement": "reduction of hot flashes", "setting": "given orally (Leon-Ferre et al., 2020)", "result": 75, "unit": "%"}, {"measurement": "frequency and intensity of hot flashes", "setting": "women with frequent hot flashes, incl. breast cancer survivors on tamoxifen or aromatase inhibitors (Kligman et al., 2010)", "result": "reduced the frequency and intensity of hot flashes"}]}]}
